Marks after values point to notes of the source that are not given here.
How the values were obtained:
human A549 NSCLC tumors [1] = test: Therapeutic effects of SHR-110008 and Taxotere against xenografts of human A549 NSCLC tumors in nude mice (Test Example 1); conditions: for RTV X ± SD / T/C (%) / T/C (%) (weighing method) / Weight of tumors (g) x ± SD: 14th day; for T/C (%): from RTV; for T/C (%) (weighing method): from weight of tumors; for Weight of tumors (g) x ± SD: weighing method; for TV (X ± SD, mm^3) d0 / Body weight (g) d0: d0: time of the first dosage; for TV (X ± SD, mm^3) dn / Body weight (g) dn: dn: 14th day after the first dosage
Experimental: Numbers of animals: 9 mice in control group, 5 mice in medication administration team.
Animals were adapted in animal house for 1 week and were hypodermic inoculated human A549 NSCLC tumors. After tumors grew to 100-300 mm^3, mice were randomly divided into teams of SHR-110008 and Taxotere(d0). The doses of SHR-110008 were 10 and 16 mg/kg, and the doses of Taxotere were 12 and 19 mg/kg, separately. The route of administration is intravenous injection. SHR-110008(10 mg/kg) and Taxotere (12 mg/kg) were administrated on d0, d4, d8, a total of three times. SHR-110008(16 mg/kg) and Taxotere (19 mg/kg) were administrated on d0, d7, a total of two times. The volume of tumors and weights of the mice were measured for 2-3 times per week. The calculation formula of the volume of tumor (V) is: V=1/2×a×b^2, a: length of tumor, b: width of tumor.

human A549 NSCLC tumors [2] = test: Therapeutic effects of SHR1021-47 against xenografts of human A549 NSCLC tumors in nude mice (Test Example 2); type: in vivo, BALB/cA-nude mice; conditions: 12 mg/kg iv, d0, d7
Experimental: Animal species: BALB/cA-nude mice.
Numbers of animals: 12 mice in control group, 6 mice in medication administration team.
Cell culture: Human A549 NSCLC tumor cells were cultured in vitro remaining on logarithmic growth phase.
Transplantation: Take the prepared cells to inoculate subcutaneously to the nude mice.
Inoculation: Take the tumor lump to inoculate in one side of oxter on the condition of asepsis.
Grouping and dose design: Measure the diameter of transplantation tumor by sliding caliper. After tumors grew to 100-250 mm^3, mice were randomly divided into groups of Shr1021-47 (8 mg/kg, 12 mg/kg, 16 mg/kg) and Taxotere (12 mg/kg).
Administration route and time: iv administration. Shr1021-47 and Taxotere were administrated on d0, d7, 2 times in all. Measure the volume of tumor and weigh the mice 2-3 times per week.
Calculate the relative tumor volume (RTV) according to the measurements. The formula is: RTVI=Vt/V0. V0 refers to the volume of tumor on d0; Vt refers to the volume of tumor on every measurement. The index of antitumor activity is T/C(%). The formula is: T/C(%)=TRTV/CRTV×100, TRTV: RTV of treatment group, CRTV: RTV of control group.

[3] = under the suitable dose schedule, conclusion in words
[4] = dn: 14th day after the first dosage

CC(=O)O[C@@]12CO[C@@H]1C[C@H](O)[C@@]1(C)[C@@H]3OC(CN4C[C@@H]5C[C@H]4CO5)O[C@@H]3C3=C(C)[C@@H](OC(=O)[C@H](O)[C@@H](NC(=O)OC(C)(C)C)c4ccccc4)C[C@@](O)([C@@H](OC(=O)c4ccccc4)[C@H]21)C3(C)C (stereo partly drawn) [SHR-110008]
RTV X ± SD (human A549 NSCLC tumors [1]; 10 mg/kg i.v., d0, 4, 8): 10.81 ± 1.79 | T/C (%) (human A549 NSCLC tumors [1]; 10 mg/kg i.v., d0, 4, 8): 48.8* % | T/C (%) (weighing method) (human A549 NSCLC tumors [1]; 10 mg/kg i.v., d0, 4, 8): 38.6* % | Weight of tumors (g) x ± SD (human A549 NSCLC tumors [1]; 10 mg/kg i.v., d0, 4, 8): 1.59 ± 0.57 g | TV (X ± SD, mm^3) d0 (human A549 NSCLC tumors [1]; 10 mg/kg i.v., d0, 4, 8): 129 ± 20 mm^3 | TV (X ± SD, mm^3) dn (human A549 NSCLC tumors [1]; 10 mg/kg i.v., d0, 4, 8): 1383 ± 243 mm^3 | RTV X ± SD (human A549 NSCLC tumors [1]; 16 mg/kg i.v., d0, 7): 4.41 ± 2.43 | T/C (%) (human A549 NSCLC tumors [1]; 16 mg/kg i.v., d0, 7): 19.9* % | T/C (%) (weighing method) (human A549 NSCLC tumors [1]; 16 mg/kg i.v., d0, 7): 74.1* % | Weight of tumors (g) x ± SD (human A549 NSCLC tumors [1]; 16 mg/kg i.v., d0, 7): 0.67 ± 0.23 g | TV (X ± SD, mm^3) d0 (human A549 NSCLC tumors [1]; 16 mg/kg i.v., d0, 7): 143 ± 38 mm^3 | TV (X ± SD, mm^3) dn (human A549 NSCLC tumors [1]; 16 mg/kg i.v., d0, 7): 612 ± 340 mm^3 | therapeutic effect compared with Taxotere (human A549 NSCLC tumors [1]; [3]): better than that of Taxotere | toxicity compared with Taxotere (human A549 NSCLC tumors [1]; [3]): better than that of Taxotere

CC(=O)O[C@@]12CO[C@@H]1C[C@H](O)[C@@]1(C)C(=O)[C@H](O)C3=C(C)[C@@H](OC(=O)[C@H](O)[C@@H](NC(=O)OC(C)(C)C)c4ccccc4)C[C@@](O)([C@@H](OC(=O)c4ccccc4)[C@H]21)C3(C)C [Taxotere]
RTV X ± SD (human A549 NSCLC tumors [2]; 14th day): 11.2 ± 6.0 | T/C (%) (human A549 NSCLC tumors [2]; 14th day, TRTV/CRTV×100): 78.3% | Body weight (g) d0 (human A549 NSCLC tumors [2]; d0: time of the first dosage): 20.7 g | TV (X ± SD, mm^3) d0 (human A549 NSCLC tumors [2]; d0: time of the first dosage): 156 ± 20 mm^3 | Body weight (g) dn (human A549 NSCLC tumors [2]; [4]): 15.6 g | TV (X ± SD, mm^3) dn (human A549 NSCLC tumors [2]; [4]): 1679 ± 749 mm^3 | RTV X ± SD (human A549 NSCLC tumors [1]; 12 mg/kg i.v., d0, 4, 8): 8.65 ± 5.83 | T/C (%) (human A549 NSCLC tumors [1]; 12 mg/kg i.v., d0, 4, 8): 39.1* % | T/C (%) (weighing method) (human A549 NSCLC tumors [1]; 12 mg/kg i.v., d0, 4, 8): 51.7* % | Weight of tumors (g) x ± SD (human A549 NSCLC tumors [1]; 12 mg/kg i.v., d0, 4, 8): 1.25 ± 0.71 g | Body weight (g) d0 (human A549 NSCLC tumors [1]; 12 mg/kg i.v., d0, 4, 8): 17.6 g | TV (X ± SD, mm^3) d0 (human A549 NSCLC tumors [1]; 12 mg/kg i.v., d0, 4, 8): 140 ± 24 mm^3 | Body weight (g) dn (human A549 NSCLC tumors [1]; 12 mg/kg i.v., d0, 4, 8): 14.1 g | TV (X ± SD, mm^3) dn (human A549 NSCLC tumors [1]; 12 mg/kg i.v., d0, 4, 8): 1149 ± 627 mm^3 | RTV X ± SD (human A549 NSCLC tumors [1]; 19 mg/kg i.v., d0, 7): 7.13 ± 6.00 | T/C (%) (human A549 NSCLC tumors [1]; 19 mg/kg i.v., d0, 7): 32.2* % | T/C (%) (weighing method) (human A549 NSCLC tumors [1]; 19 mg/kg i.v., d0, 7): 57.9* % | Weight of tumors (g) x ± SD (human A549 NSCLC tumors [1]; 19 mg/kg i.v., d0, 7): 1.09 ± 0.73 g | Body weight (g) d0 (human A549 NSCLC tumors [1]; 19 mg/kg i.v., d0, 7): 17.7 g | TV (X ± SD, mm^3) d0 (human A549 NSCLC tumors [1]; 19 mg/kg i.v., d0, 7): 134 ± 19 mm^3 | Body weight (g) dn (human A549 NSCLC tumors [1]; 19 mg/kg i.v., d0, 7): 13.0 g | TV (X ± SD, mm^3) dn (human A549 NSCLC tumors [1]; 19 mg/kg i.v., d0, 7): 902 ± 736 mm^3
